From ChEMBL document CHEMBL1201862, “PubChem BioAssay data set” (2004)
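All cell lines were grown in 96-well plates and treated with compound for 48 hours. GI50: concentration for 50% inhibition of growth.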 Activity calls are given as the source filed them. Cut-off read from the data, not from the text of the source: active = GI50 up to about 1.1 µM and inactive = higher.

Columns and labels:
Experiment in all cases: growth of human tumour cells (NCI), 48 h
A498 = tested on: A498
A549 = tested on: A549
DLD-1 = tested on: DLD-1
EKVX = tested on: EKVX
HT-29 = tested on: HT-29
Hs-578T = tested on: Hs-578T
IGROV-1 = tested on: IGROV-1
KM12 = tested on: KM12
LOX IMVI = tested on: LOX IMVI
MDA-MB-435 = tested on: MDA-MB-435
MDA-N = tested on: MDA-N
NCI-H23 = tested on: NCI-H23
NCI-H522 = tested on: NCI-H522
OVCAR-4 = tested on: OVCAR-4
OVCAR-8 = tested on: OVCAR-8
RXF 393 = tested on: RXF 393
SF-295 = tested on: SF-295
SK-MEL-5 = tested on: SK-MEL-5
SK-OV-3 = tested on: SK-OV-3
TK-10 = tested on: TK-10

| Compound | GI50 (A498) | GI50 (A549) | GI50 (DLD-1) | GI50 (EKVX) | GI50 (HT-29) | GI50 (Hs-578T) | GI50 (IGROV-1) | GI50 (KM12) | GI50 (LOX IMVI) | GI50 (MDA-MB-435) | GI50 (MDA-N) | GI50 (NCI-H23) | GI50 (NCI-H522) | GI50 (OVCAR-4) | GI50 (OVCAR-8) | GI50 (RXF 393) | GI50 (SF-295) | GI50 (SK-MEL-5) | GI50 (SK-OV-3) | GI50 (TK-10) |
| --- | --- | --- | --- | --- | --- | --- | --- | --- | --- | --- | --- | --- | --- | --- | --- | --- | --- | --- | --- | --- |
| O=C1C(CO)=C(CO)C(=O)c2c(O)ccc(O)c21 | 1.69 µM (inactive) | 1.64 µM (inactive) | 0.0653 µM (active) | 2.25 µM (inactive) | 0.105 µM (active) | 1.45 µM (inactive) | 1.68 µM (inactive) | 1.61 µM (inactive) | 0.252 µM (active) | 0.472 µM (active) | 0.236 µM (active) | 0.389 µM (active) | 0.0897 µM (active) | 0.234 µM (active) | 0.942 µM (active) | 0.39 µM (active) | 1.69 µM (inactive) | 0.394 µM (active) | 7.23 µM (inactive) | 0.352 µM (active) |
| C=C1C(=O)C23C(O)CC4C(C)(C)CCC(O)C4(C)C2CC(OC(C)=O)C1[C@H]3O (stereo partly specified) | 15.8 µM (inactive) | 4.06 µM (inactive) | 1.69 µM (inactive) | 4.88 µM (inactive) | 0.351 µM (active) | 24 µM (inactive) | 4.79 µM (inactive) | 15.8 µM (inactive) | 0.188 µM (active) | 7.96 µM (inactive) | 7.87 µM (inactive) | 2.44 µM (inactive) | 0.123 µM (active) | – | 1.22 µM (inactive) | 2.62 µM (inactive) | 8.05 µM (inactive) | – | 17.3 µM (inactive) | 2.22 µM (inactive) |
| Nc1n[nH]c(N)n1 [GUANAZOLE] | 5470 µM (inactive) | 4420 µM (inactive) | 9840 µM (inactive) | 7350 µM (inactive) | 5060 µM (inactive) | > 10000 µM (inactive) | 7000 µM (inactive) | 8890 µM (inactive) | 2960 µM (inactive) | > 9750 µM (inactive) | 8570 µM (inactive) | 5300 µM (inactive) | 2680 µM (inactive) | > 9120 µM (inactive) | 3400 µM (inactive) | 6820 µM (inactive) | 2360 µM (inactive) | 3940 µM (inactive) | 3210 µM (inactive) | > 10000 µM (inactive) |
| CC(Oc1cc2oc(=O)cc(-c3ccccc3)c2cc1Cl)C(=O)O (stereo unspecified) | > 100 µM (inactive) | > 100 µM (inactive) | > 100 µM (inactive) | > 100 µM (inactive) | > 100 µM (inactive) | – | > 100 µM (inactive) | > 100 µM (inactive) | > 100 µM (inactive) | – | – | > 100 µM (inactive) | > 100 µM (inactive) | > 100 µM (inactive) | > 100 µM (inactive) | > 100 µM (inactive) | > 100 µM (inactive) | > 100 µM (inactive) | > 100 µM (inactive) | > 100 µM (inactive) |
| COc1ccccc1C(N)c1ccccc1 (stereo unspecified) | > 100 µM (inactive) | > 100 µM (inactive) | > 100 µM (inactive) | > 100 µM (inactive) | > 100 µM (inactive) | – | > 100 µM (inactive) | > 100 µM (inactive) | > 100 µM (inactive) | – | – | > 100 µM (inactive) | > 100 µM (inactive) | > 100 µM (inactive) | > 100 µM (inactive) | > 100 µM (inactive) | > 100 µM (inactive) | > 100 µM (inactive) | > 100 µM (inactive) | > 100 µM (inactive) |
| CCCCCCCCCCCCCCCC[N+](C)(C)Cc1ccc(C[N+](C)(C)CCCCCCCCCCCCCCCC)cc1 | > 100 µM (inactive) | 2.09 µM (inactive) | 3.48 µM (inactive) | 3 µM (inactive) | 2.28 µM (inactive) | – | 2.43 µM (inactive) | 2.56 µM (inactive) | 2.74 µM (inactive) | – | – | 1.88 µM (inactive) | 2.58 µM (inactive) | 3.23 µM (inactive) | 2.04 µM (inactive) | 0.923 µM (active) | 1.74 µM (inactive) | 6.12 µM (inactive) | 2.62 µM (inactive) | 17.8 µM (inactive) |
| OCCN(CCO)c1cccc(N(CCO)CCO)n1 | > 100 µM (inactive) | > 100 µM (inactive) | > 100 µM (inactive) | > 100 µM (inactive) | – | – | – | > 100 µM (inactive) | > 100 µM (inactive) | – | – | – | > 100 µM (inactive) | > 100 µM (inactive) | > 100 µM (inactive) | > 100 µM (inactive) | > 100 µM (inactive) | > 100 µM (inactive) | > 100 µM (inactive) | > 100 µM (inactive) |
| Nc1ccn(CCOC(c2ccccc2)P(=O)(O)O)c(=O)n1 (stereo unspecified) | > 100 µM (inactive) | > 100 µM (inactive) | > 100 µM (inactive) | > 100 µM (inactive) | > 100 µM (inactive) | – | > 100 µM (inactive) | > 100 µM (inactive) | > 100 µM (inactive) | – | – | > 100 µM (inactive) | > 100 µM (inactive) | – | > 100 µM (inactive) | > 100 µM (inactive) | > 100 µM (inactive) | > 100 µM (inactive) | > 100 µM (inactive) | > 100 µM (inactive) |
| NS(=O)(=O)c1cc2c(cc1Cl)NC(C(=O)c1cc(=O)c3ccc(O)cc3o1)=NS2(=O)=O | > 100 µM (inactive) | > 100 µM (inactive) | > 100 µM (inactive) | > 100 µM (inactive) | > 100 µM (inactive) | – | > 100 µM (inactive) | > 100 µM (inactive) | > 100 µM (inactive) | – | – | > 100 µM (inactive) | > 100 µM (inactive) | > 100 µM (inactive) | > 100 µM (inactive) | > 100 µM (inactive) | > 100 µM (inactive) | > 100 µM (inactive) | > 100 µM (inactive) | > 100 µM (inactive) |
